In ChEMBL document CHEMBL2417535, “Synthesis and structure-activity relationships evaluation of benzothiazinone derivatives as potential anti-tubercular agents” (Bioorg Med Chem Lett, 2013):
pIC50: −log10 of the molar value. In brackets after ≈: the same amount, converted by molar mass.

Tests used:
[1] = test system: Mycobacterium tuberculosis; assay: Antitubercular activity against Mycobacterium tuberculosis H37Ra ATCC 25177 by microplate alamar blue assay; type: functional
[2] = test system: Mycobacterium tuberculosis; assay: Antitubercular activity against Mycobacterium tuberculosis H37Rv ATCC 27294 by microdilution plate assay; type: functional
[3] = Selectivity index, ratio of IC50 for african green monkey Vero cells to MIC for Mycobacterium tuberculosis H37Rv ATCC 27294; type: functional
[4] = test system: Vero; assay: Cytotoxicity against african green monkey Vero cells after 72 hrs by MTT assay; type: cell-based; conditions: Chlorocebus sabaeus
[5] = Selectivity index, ratio of IC50 for african green monkey Vero cells to MIC for Mycobacterium tuberculosis H37Ra ATCC 25177; type: functional
[6] = test system: Mycobacterium tuberculosis; assay: Ratio of isoniazid MIC to compound MIC for Mycobacterium tuberculosis H37Rv ATCC 27294; type: functional
[7] = test system: Mycobacterium avium; assay: Antitubercular activity against Mycobacterium avium ATCC 25291 by microdilution plate assay; type: functional, Mycobacterium avium subsp. avium ATCC 25291
[8] = test system: Mycolicibacterium smegmatis; assay: Antitubercular activity against Mycobacterium smegmatis MC2 155 by microplate alamar blue assay; type: functional; conditions: str. MC2 155
[9] = Lipophilicity, log P of the compound by shake flask method; type: physicochemical; conditions: octanol/water
[10] = Oral bioavailability in Sprague-Dawley rat at 20 mg/kg; type: ADME, organism-based; conditions: in vivo
[11] = Cmax in Sprague-Dawley rat at 10 mg/kg, iv; type: ADME, organism-based; parameters: dose 10 mg/kg, route intravenous; conditions: in vivo
[12] = Elimination half life in Sprague-Dawley rat at 20 mg/kg, po; type: ADME, organism-based; parameters: dose 20 mg/kg, route oral; conditions: in vivo, read-out: beta t1/2 (converted)
[13] = AUC (0 to infinity) in Sprague-Dawley rat at 10 mg/kg, iv; type: ADME, organism-based; parameters: time infinity, dose 10 mg/kg, route intravenous; conditions: plasma
[14] = Elimination half life in Sprague-Dawley rat at 10 mg/kg, iv; type: ADME, organism-based; parameters: dose 10 mg/kg, route intravenous; conditions: in vivo, read-out: beta t1/2 (converted)
[15] = test system: Mus musculus; assay: Acute toxicity in BALB/c mouse assessed as mortality at 2 g/kg, po; type: organism-based; conditions: in vivo, 2000 mg/kg
[16] = Tmax in Sprague-Dawley rat at 20 mg/kg, po; type: ADME, organism-based; parameters: dose 20 mg/kg, route oral; conditions: in vivo
[17] = AUC (0 to infinity) in Sprague-Dawley rat at 20 mg/kg, po; type: ADME, organism-based; parameters: dose 20 mg/kg, route oral, time infinity; conditions: plasma
[18] = Cmax in Sprague-Dawley rat at 20 mg/kg, po; type: ADME, organism-based; parameters: dose 20 mg/kg, route oral; conditions: in vivo

SMILES	MIC [1] [µM]	MIC [2] [µM]	Selectivity Index [3]	pIC50 [4]	Selectivity Index [5]	other results
CC(C)CNc1nc(=O)c2cc([N+](=O)[O-])cc([N+](=O)[O-])c2s1	1.6 (≈ 519 ng/mL)					
O=c1nc(N2CCCCC2)sc2c([N+](=O)[O-])cc(C(F)(F)F)cc12	0.8 (≈ 287 ng/mL)	0.7 (≈ 252 ng/mL)	>142	< 4.00		
O=c1nc(NC2CCCC2)sc2c([N+](=O)[O-])cc(C(F)(F)F)cc12	0.8 (≈ 287 ng/mL)			< 4.00	>125	
CC1CCN(c2nc(=O)c3cc([N+](=O)[O-])cc([N+](=O)[O-])c3s2)CC1	0.2 (≈ 70.1 ng/mL)					
CC(C)CNc1nc(=O)c2cc(C(F)(F)F)cc([N+](=O)[O-])c2s1	0.8 (≈ 278 ng/mL)			< 4.00	>125	
O=c1nc(NC2CC2)sc2c([N+](=O)[O-])cc(C(F)(F)F)cc12	0.4 (≈ 133 ng/mL)			< 4.00	>250	
CCCCNc1nc(=O)c2cc(C(F)(F)F)cc([N+](=O)[O-])c2s1	0.8 (≈ 278 ng/mL)			< 4.00	>125	
O=C(O)C1CCN(c2nc(=O)c3cc(C(F)(F)F)cc([N+](=O)[O-])c3s2)CC1	3.1 (≈ 1250 ng/mL)			< 4.00	>32	
CCCNc1nc(=O)c2cc([N+](=O)[O-])cc([N+](=O)[O-])c2s1	3.1 (≈ 962 ng/mL)					
CCNc1nc(=O)c2cc(C(F)(F)F)cc([N+](=O)[O-])c2s1	6.3 (≈ 2010 ng/mL)			< 4.00	>16	
CC1CCN(c2nc(=O)c3cc(C(F)(F)F)cc([N+](=O)[O-])c3s2)CC1	0.1 (≈ 37.3 ng/mL)	0.08 (≈ 29.9 ng/mL)	>1250	< 4.00		Ratio [6]: 2.5
CCCNc1nc(=O)c2cc(C(F)(F)F)cc([N+](=O)[O-])c2s1	1.6 (≈ 533 ng/mL)			< 4.00	>62	
O=c1nc(N2CCOCC2)sc2c([N+](=O)[O-])cc(C(F)(F)F)cc12	3.1 (≈ 1120 ng/mL)			< 4.00	>32	
CCN(CC)c1nc(=O)c2cc(C(F)(F)F)cc([N+](=O)[O-])c2s1	0.8 (≈ 278 ng/mL)			< 4.00	>125	
NNC(=O)c1ccncc1 [ISONIAZID]	0.8 (≈ 110 ng/mL)	0.2 (≈ 27.4 ng/mL)	>500	< 4.00		
CC1COC2(CCN(c3nc(=O)c4cc(C(F)(F)F)cc([N+](=O)[O-])c4s3)CC2)O1 (racemic)	0.004 (≈ 1.73 ng/mL)	0.002 (≈ 0.863 ng/mL)	>50000	< 4.00		MIC [7]: 74 µM (≈ 31900 ng/mL); MIC [8]: 0.013 µM (≈ 5.61 ng/mL); logP [9]: 2.69
CC(C)(C)OC(=O)N1CCN(c2nc(=O)c3cc(C(F)(F)F)cc([N+](=O)[O-])c3s2)CC1	0.02 (≈ 9.21 ng/mL)	0.03 (≈ 13.8 ng/mL)	>3000	< 4.00		Ratio [6]: 6.7
O=c1nc(N2CCC3(CC2)OCCS3)sc2c([N+](=O)[O-])cc(C(F)(F)F)cc12	0.002 (≈ 0.867 ng/mL)	0.002 (≈ 0.867 ng/mL)	>50000	< 4.00		
O=c1nc(N2CCCC2)sc2c([N+](=O)[O-])cc(C(F)(F)F)cc12	0.8 (≈ 276 ng/mL)			< 4.00	>125	
CCCCNc1nc(=O)c2cc([N+](=O)[O-])cc([N+](=O)[O-])c2s1	0.8 (≈ 259 ng/mL)					
CC(C)(C)Nc1nc(=O)c2cc([N+](=O)[O-])cc([N+](=O)[O-])c2s1	0.4 (≈ 130 ng/mL)					
CC(C)(C)OC(=O)N1CCN(c2nc(=O)c3cc([N+](=O)[O-])cc([N+](=O)[O-])c3s2)CC1	0.4 (≈ 175 ng/mL)					
O=c1nc(N2CCC3(CC2)SCCS3)sc2c([N+](=O)[O-])cc(C(F)(F)F)cc12	0.001 (≈ 0.45 ng/mL)	0.0001 (≈ 0.045 ng/mL)	>1000000	< 4.00		bioavailability [10]: 26%; Cmax [11]: 1720 ng/mL; half-life [12]: 5.4 h; AUC(0-inf) [13]: 1480 ng·h/mL; MIC [7]: 36 µM (≈ 16200 ng/mL); half-life [14]: 2.5 h; MIC [8]: 0.0063 µM (≈ 2.83 ng/mL); Activity [15]: Non-toxic; logP [9]: 3.94; Tmax [16]: 0.5 h; AUC(0-inf) [17]: 780 ng·h/mL; Ratio [6]: 2000; Cmax [18]: 560 ng/mL
